Active and inactive are the calls of the source. The rule behind the calls is not given here.
Columns and labels:
Carbonic anhydrase 1 [1] = molecular target: T1, Carbonic anhydrase 1 (Homo sapiens, UniProt P00915); assay: Inhibition of human carbonic anhydrase I assessed as inhibition constant incubated for 15 mins by stopped-flow carbon dioxide hydration assay
Carbonic anhydrase 2 [2] = molecular target: T2, Carbonic anhydrase 2 (Homo sapiens, UniProt P00918); assay: Inhibition of human carbonic anhydrase II assessed as inhibition constant incubated for 15 mins by stopped-flow carbon dioxide hydration assay
Carbonic anhydrase 9 [3] = molecular target: T3, Carbonic anhydrase 9 (Homo sapiens, UniProt Q16790)
Description: Inhibition of human carbonic anhydrase IX assessed as inhibition constant incubated for 15 mins by stopped-flow carbon dioxide hydration assay

Carbonic anhydrase 12 [4] = molecular target: T4, Carbonic anhydrase 12 (Homo sapiens, UniProt O43570); assay: Inhibition of human carbonic anhydrase XII assessed as inhibition constant incubated for 15 mins by stopped-flow carbon dioxide hydration assay
T4 sequence (O43570 whole entry): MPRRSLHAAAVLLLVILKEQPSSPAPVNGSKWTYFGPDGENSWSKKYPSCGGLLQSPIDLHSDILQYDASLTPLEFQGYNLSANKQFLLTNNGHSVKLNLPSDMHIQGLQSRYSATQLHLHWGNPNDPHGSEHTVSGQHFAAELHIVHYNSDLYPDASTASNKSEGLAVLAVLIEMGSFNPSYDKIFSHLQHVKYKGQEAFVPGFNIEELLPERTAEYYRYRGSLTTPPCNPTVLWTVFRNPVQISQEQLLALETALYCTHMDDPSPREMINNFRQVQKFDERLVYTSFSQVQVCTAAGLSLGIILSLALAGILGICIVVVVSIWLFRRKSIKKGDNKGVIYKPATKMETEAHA

A-375 [5] = assay: Anti-melanoma activity against human A-375 cells assessed as inhibition of cell proliferation at 200 uM incubated for 72 hrs by MACSQUant analyzer; format: functional, cell-based
A2058 [6] = assay: Anti-melanoma activity against human A2058 cells assessed as inhibition of cell proliferation at 200 uM incubated for 72 hrs by MACSQUant analyzer; format: functional, cell-based
SK-MEL-2 [7] = assay: Anti-melanoma activity against human SK-MEL-2 cells assessed as inhibition of cell proliferation at 200 uM incubated for 72 hrs by MACSQUant analyzer; format: functional, cell-based
A-375 [8] = assay: Anti-melanoma activity against human A-375 cells assessed as inhibition of cell proliferation incubated for 72 hrs by MACSQUant analyzer; format: functional, cell-based; settings: A-375, 72 h
Carbonic anhydrase 9 [9] = molecular target: T3, Carbonic anhydrase 9; assay: Inhibition of human carbonic anhydrase IX catalytic domain assessed as inhibition constant incubated for 15 to 360 mins by stopped-flow CO2 hydration assay
Carbonic anhydrase 12 [10] = molecular target: T4, Carbonic anhydrase 12; assay: Inhibition of human carbonic anhydrase XII catalytic domain assessed as inhibition constant incubated for 15 to 360 mins by stopped-flow CO2 hydration assay
A-375 [11] = assay: Anti-melanoma activity against human A-375 cells assessed as inhibition of cell proliferation at 100 uM incubated for 72 hrs by MACSQUant analyzer; format: functional, cell-based
A2058 [12] = assay: Anti-melanoma activity against human A2058 cells assessed as inhibition of cell proliferation at 100 uM incubated for 72 hrs by MACSQUant analyzer; format: functional, cell-based
SK-MEL-2 [13] = assay: Anti-melanoma activity against human SK-MEL-2 cells assessed as inhibition of cell proliferation at 100 uM incubated for 72 hrs by MACSQUant analyzer; format: functional, cell-based
Carbonic anhydrase 1 [14] = molecular target: T1, Carbonic anhydrase 1; assay: Inhibition of human carbonic anhydrase I assessed as inhibition constant incubated for 15 to 360 mins by stopped-flow CO2 hydration assay
A-375 [15] = assay: Anti-melanoma activity against human A-375 cells assessed as inhibition of cell proliferation at 10 to 300 uM incubated for 72 hrs by MACSQUant analyzer; format: functional, cell-based; settings: dose 10-300 µM
A2058 [16] = assay: Anti-melanoma activity against human A2058 cells assessed as inhibition of cell proliferation at 10 to 300 uM incubated for 72 hrs by MACSQUant analyzer; format: functional, cell-based; settings: dose 10-300 µM
SK-MEL-2 [17] = assay: Anti-melanoma activity against human SK-MEL-2 cells assessed as inhibition of cell proliferation at 10 to 300 uM incubated for 72 hrs by MACSQUant analyzer; format: functional, cell-based; settings: dose 10-300 µM
Carbonic anhydrase 2 [18] = molecular target: T2, Carbonic anhydrase 2; assay: Inhibition of human carbonic anhydrase II assessed as inhibition constant incubated for 15 to 360 mins by stopped-flow CO2 hydration assay

T1 sequence (P00915 whole entry): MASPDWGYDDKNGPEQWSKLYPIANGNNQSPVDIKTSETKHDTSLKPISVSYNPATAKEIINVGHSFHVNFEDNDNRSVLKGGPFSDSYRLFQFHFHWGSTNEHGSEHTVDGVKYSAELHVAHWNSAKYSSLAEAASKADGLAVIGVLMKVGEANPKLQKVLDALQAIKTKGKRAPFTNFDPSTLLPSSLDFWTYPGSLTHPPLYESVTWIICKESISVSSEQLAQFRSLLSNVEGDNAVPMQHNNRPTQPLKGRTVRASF

Row | SMILES | Ki (Carbonic anhydrase 1 [1]) [nM] | Ki (Carbonic anhydrase 2 [2]) [nM] | Ki (Carbonic anhydrase 9 [3]) [nM] | Ki (Carbonic anhydrase 12 [4]) [nM] | Ki (Carbonic anhydrase 9 [9]) [nM] | Ki (Carbonic anhydrase 12 [10]) [nM] | further results
1 | OB1OCCc2ccc(NC(=S)Nc3ccc(F)cc3)cc21 | 1590 | 434 | 88.5 | 151 | – | – | –
2 | NS(=O)(=O)c1ccc(NC(=O)Nc2ccc(F)cc2)cc1 [SLC-0111] | – | – | – | – | – | – | Activity (A-375 [5]): Active; Activity (A2058 [6]): Active; Activity (SK-MEL-2 [7]): Active; IC50 (A-375 [8]): 111000 nM
3 | O=C(Nc1ccccc1)Nc1ccc2c(c1)B(O)OC2 | – | – | – | – | 1060 | 240 | –
4 | O=C(Nc1ccc(F)cc1)Nc1ccc2c(c1)B(O)OCC2 | 3490 | 85.9 | 451 | 278 | – | – | Activity (A-375 [11]): Active; Activity (A2058 [12]): Active; Activity (SK-MEL-2 [13]): Active; IC50 (A-375 [8]): 132000 nM
5 | O=C(Nc1ccc(C(F)(F)F)cc1)Nc1ccc2c(c1)B(O)OCC2 | 20700 | 306 | 139 | 354 | – | – | –
6 | OB1OCc2ccccc21 [BENZOXABOROLE] | – | – | – | – | > 50000 | > 50000 | –
7 | Nc1ccc2c(c1)B(O)OCC2 | > 100000 | 2920 | 45 | 2310 | – | – | –
8 | O=C(Nc1ccc(F)cc1)Nc1ccc2c(c1)B(O)OC2 | – | – | – | – | 843 | 175 | –
9 | OB1OCc2ccc(NC(=S)Nc3ccc(F)cc3)cc21 | – | – | – | – | 336 | 89 | –
10 | OB1OCCc2ccc(NC(=S)Nc3ccc(C(F)(F)F)cc3)cc21 | 16800 | 44.9 | 349 | 82 | – | – | –
11 | Nc1ccc2c(c1)B(O)OC2 | – | – | – | – | 813 | 640 | –
12 | O=C(NCc1ccccc1)Nc1ccc2c(c1)B(O)OC2 | – | – | – | – | 925 | 184 | –
13 | O=[N+]([O-])c1ccc2c(c1)B(O)OC2 | – | – | – | – | 94 | 92 | –
14 | OB1OCc2ccc(NC(=S)NCc3ccccc3)cc21 | – | – | – | – | 610 | 42 | Ki (Carbonic anhydrase 1 [14]): 380 nM
15 | OB1OCCc2ccc(NC(=S)NCc3ccccc3)cc21 | 614 | 41.7 | 52.8 | 69 | – | – | Activity (A-375 [15]): Active; Activity (A2058 [16]): Active; Activity (SK-MEL-2 [17]): Active; IC50 (A-375 [8]): 126000 nM
16 | OB1OCCc2ccccc21 [BENZOXABORIN] | 3870 | 1950 | 9840 | 754 | – | – | –
17 | O=[N+]([O-])c1ccc(NC(=S)Nc2ccc3c(c2)B(O)OCC3)cc1 | 523 | 452 | 63.2 | 46.4 | – | – | –
18 | O=[N+]([O-])c1ccc2c(c1)B(O)OCC2 | 44500 | 983 | 25 | 920 | – | – | –
19 | OB1OCc2ccc(NC(=S)Nc3ccccc3)cc21 | – | – | – | – | 436 | 76 | Ki (Carbonic anhydrase 1 [14]): 548 nM; Ki (Carbonic anhydrase 2 [18]): 1150 nM
20 | O=C(Nc1ccccc1)Nc1ccc2c(c1)B(O)OCC2 | 19000 | 262 | 268 | 210 | – | – | –
21 | O=C(NCc1ccccc1)Nc1ccc2c(c1)B(O)OCC2 | 637 | 112 | 163 | 80.7 | – | – | Activity (A-375 [15]): Active; Activity (A2058 [16]): Active; Activity (SK-MEL-2 [17]): Active; IC50 (A-375 [8]): 31600 nM
22 | O=C(Nc1ccc(C(F)(F)F)cc1)Nc1ccc2c(c1)B(O)OC2 | – | – | – | – | 845 | 93 | –
23 | OB1OCCc2ccc(NC(=S)Nc3ccccc3)cc21 | 798 | 295 | 312 | 191 | – | – | –

Reference: ChEMBL document CHEMBL6127103, “Benzoxaborinine, New Chemotype for Carbonic Anhydrase Inhibition: Ex Novo Synthesis, Crystallography, In Silico Studies, and Anti-Melanoma Cell Line Activity” (J Med Chem, 2024)
